Experimental data reported in patent US20090036512A1, “FUNGICIDAL ACTIVE COMPOUND COMBINATION” (priority 2005, published 2009).

Tested on: Leptosphaeria nodorum
Experiment: Leptosphaeria nodorum test (wheat)/protective
Assay type: in vivo
Settings: Parastagonospora nodorum, 240 h, protective, evaluation 10 days after inoculation
Protocol: Leptosphaeria nodorum test (wheat)/protective Solvent: 50 parts by weight of N,N-dimethylacetamide Emulsifier: 1 part by weight of alkylaryl polyglycol ether To prepare a suitable preparation of active compound, 1 part by weight of active compound or active compound combination is mixed with the stated amounts of solvents and emulsifier, and the concentrate is diluted with water to the desired concentration, or a commercial formulation of active compound or active compound combination with water is diluted with water to the desired concentration. To test for protective activity, young plants are sprayed with the active compound preparation at the stated application rate. After the spray coating has dried on, the plants are sprayed with a spore suspension of Leptosphaeria nodorum. The plants remain in an incubation cabin at 20° C. and 100% relative atmospheric humidity for 48 hours. The plants are placed in a greenhouse at a temperature of about 20° C. and a relative atmospheric humidity of 80%. Evaluation is carried out 10 days after inoculation. Here, 0% means an efficacy which corresponds to that of the control, whereas an efficacy of 100% means that no infection is observed.

| Structure (SMILES) | Emax at 82.5 ppm (application rate 82.5 ppm, read-out: % efficacy (converted)) | Emax at 375 ppm (application rate 375 ppm, read-out: % efficacy) | Emax at 500 ppm (application rate 500 ppm, read-out: % efficacy) | Emax at 25 ppm (application rate 25 ppm, read-out: % efficacy) |
| --- | --- | --- | --- | --- |
| O=C1C2CC=CCC2C(=O)N1SC(Cl)(Cl)Cl (stereo not shown) [Captan, 3a,4,7,7a-tetrahydro-2-[(trichloromethyl)thio]-1H-isoindole-1,3(2H)-dione] | 50% | 25% | 25% |  |
| CON=C(C(=O)OC)c1ccccc1CO/N=C(\C)c1cccc(C(F)(F)F)c1 [Trifloxystrobin, 2-[α-{[(α-methyl-3-trifluoromethyl-benzyl)imino]-oxy}-o-tolyl]-glyoxylic acid methyl ester O-methyloxime] |  |  |  | 50% |
